Measured values reported in publication PMC9632086, “Phosphodiesterase 10A (PDE10A) as a novel target to suppress β-catenin and RAS signaling in epithelial ovarian cancer” (Journal of Ovarian Research, 2022).

Biological target: T1, PDE10A (Homo sapiens, UniProt Q9Y233)
T1 construct: endogenous PDE10A in SKOV3 cells
Assay: cellular cAMP immunoassay after […] for […] min, parental and empty-vector cells versus PDE10A knockout clones
Format: cell-based

T1 sequence (Q9Y233 whole entry): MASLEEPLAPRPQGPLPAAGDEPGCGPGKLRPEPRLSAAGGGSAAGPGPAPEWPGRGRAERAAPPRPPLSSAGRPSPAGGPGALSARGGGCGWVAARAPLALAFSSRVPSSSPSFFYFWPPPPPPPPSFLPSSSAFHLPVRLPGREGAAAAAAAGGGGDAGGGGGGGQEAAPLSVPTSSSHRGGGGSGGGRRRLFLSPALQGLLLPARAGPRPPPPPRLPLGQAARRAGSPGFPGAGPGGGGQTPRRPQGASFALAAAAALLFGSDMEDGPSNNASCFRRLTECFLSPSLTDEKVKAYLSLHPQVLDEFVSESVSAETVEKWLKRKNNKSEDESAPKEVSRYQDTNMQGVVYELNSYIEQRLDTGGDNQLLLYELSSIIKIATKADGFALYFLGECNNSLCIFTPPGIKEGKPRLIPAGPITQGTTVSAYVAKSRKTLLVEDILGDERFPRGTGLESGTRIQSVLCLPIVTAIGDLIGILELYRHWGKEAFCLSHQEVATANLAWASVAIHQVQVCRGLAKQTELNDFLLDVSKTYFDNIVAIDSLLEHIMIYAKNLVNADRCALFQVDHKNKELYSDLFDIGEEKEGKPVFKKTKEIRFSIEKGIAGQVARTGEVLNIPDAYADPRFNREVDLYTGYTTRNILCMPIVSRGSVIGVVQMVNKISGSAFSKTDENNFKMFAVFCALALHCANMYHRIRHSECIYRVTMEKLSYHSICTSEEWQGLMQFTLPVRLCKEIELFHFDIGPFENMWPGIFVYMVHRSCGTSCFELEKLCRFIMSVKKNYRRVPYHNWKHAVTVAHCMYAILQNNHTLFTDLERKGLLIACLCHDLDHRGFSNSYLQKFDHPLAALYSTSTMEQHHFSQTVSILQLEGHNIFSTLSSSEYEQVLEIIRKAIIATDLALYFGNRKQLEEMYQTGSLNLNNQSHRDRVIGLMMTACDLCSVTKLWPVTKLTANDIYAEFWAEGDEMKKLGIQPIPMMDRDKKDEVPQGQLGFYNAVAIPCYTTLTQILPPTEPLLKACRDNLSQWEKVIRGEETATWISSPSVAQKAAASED

COc1ccc2c(c1)C(CC(=O)Nc1cccnc1)=C(C)/C2=C/c1cc(OC)c(OC)c(OC)c1 [MCI-030]
cellular cAMP level: MCI-030 increased cAMP only in SKOV3 parental and EV 1B9 control cells, but not in the PDE10A KO clones
